Experimental data reported in paper PMC12187371 (Neuro-Oncology, 2024).

Experiments:
[1] = tested on: HEI-193 cells; assay: HEI-193 cell viability; format: cell-based, human; conditions: WST-8, 3 days
[2] = tested on: normal human fibroblasts; assay: Apoptosis markers in normal human fibroblasts; format: cell-based; conditions: 1 day
[3] = tested on: HEI-193 cells; assay: Western blotting of differentiation and cell cycle markers in HEI-193 cells; format: cell-based, human; conditions: 7 days
[4] = tested on: normal human fibroblasts; assay: Normal human fibroblast viability; format: cell-based; conditions: WST-8, 3 days
[5] = tested on: NF2-associated vestibular schwannomas; conditions: progressive NF2-associated vestibular schwannomas; cited from earlier work

Row | Compound | proliferation of HEI-193 cells [1] | cytochrome c release from mitochondria [2] | expression of SOX10, MBP, p21 and p27 [3] | expression of stem cell factor SOX2 [3] | toxicity in human normal fibroblasts [4] | patients with improved hearing and reduced tumor volume [5]
1 | COc1cc(N2CCC(N3CCN(C)CC3)CC2)ccc1Nc1ncc(Cl)c(Nc2ccccc2P(C)(C)=O)n1 [Brigatinib] | dose-dependently reduced | induced cytochrome c release | decreased the expression of all these markers | decreased the expression of all these markers | showed toxicity | 
2 | Cn1cnc2c(F)c(Nc3ccc(Br)cc3Cl)c(C(=O)NOCCO)cc21 [Selumetinib] | did not exhibit any effect |  |  |  |  | 
3 | Bevacizumab |  |  |  |  |  | about 40 % of patients
